Assay results as given in patent US6028195A, “Piperazine derivatives and process for the preparation thereof” (Samjin Pharmaceutical Co., Ltd., priority 1996, dated 2000).
In brackets after ≈: the same amount, converted by molar mass. Read-outs that look alike come from different tables or passages of the source.

Tests used:
Assay type in all cases: cell-based
Details in all cases: for IC50: Homo sapiens
[1] = system: A549 (human non-small lung cell); assay: SRB assay, in vitro antitumor effect against A549
Procedure: (§1) In vitro antitumor effect against human tumor cell lines.
(§2) b. 5×10^3 ~2×10^4 cells were added into each well of 96-well plate and cultured in 5% CO2 incubator, at 37° C., for 24 hours.
(§3) c. Each sample drug was dissolved in a little DMSO and diluted with the used medium to a prescribed concentration for experiments, wherein the final concentration of DMSO was controlled below 0.5%.
(§4) d. Medium of each well cultured for 24 hours as above b. was removed by aspiration. Each 200 μl of drug samples prepared in c. was added into each well and the wells were cultured for 48 hours. Tz(time zero) plates were collected at the point of time drugs were added.
(§5) e. According to the SRB assay method, cell fixing with TCA, staining with 0.4% SRB solution, washing with 1% acetic acid and elution of dye with 10 mM Tris solution were carried out on Tz plates and culture-ended plates, and then, OD values were measured at 520 nm.
(§6) a. Time zero(Tz) value was determined with measuring the SRB protein value at the point of time drugs were added.
(§7) b. Control value(C) was determined with the OD value of an well untreated with drug.
(§8) c. Drug-treated test value(T) was determined with the OD value of drug-treated well.
(§9) d. Effects of drugs were estimated with growth stimulation, net growth inhibition, net killing etc. calculated from Tz, C and T.
(§10) e. If T≥Tz, cellular response function was calculated by 100×(T-Tz)/(C-Tz), and if T<Tz, by 100×(T-Tz)/Tz.

[2] = system: SKOV-3 (human ovarian); assay: SRB assay, in vitro antitumor effect against SKOV-3
Procedure: as §1, §2, §3, §4, §5, §6, §7, §8, §9, §10

[3] = system: SKMEL-2 (human melanoma); assay: SRB assay, in vitro antitumor effect against SKMEL-2
Procedure: as §1, §2, §3, §4, §5, §6, §7, §8, §9, §10

[4] = system: XF 498 (human CNS); assay: SRB assay, in vitro antitumor effect against XF 498
Procedure: as §1, §2, §3, §4, §5, §6, §7, §8, §9, §10

[5] = system: HCT-15 (human colon); assay: SRB assay, in vitro antitumor effect against HCT-15
Procedure: as §1, §2, §3, §4, §5, §6, §7, §8, §9, §10

[6] = A549, 48 hours, read-out: ED50 (the source's name)
[7] = SK-OV-3, 48 hours, read-out: ED50 (the source's name)
[8] = SK-MEL-2, 48 hours, read-out: ED50 (the source's name)
[9] = XF498, XF-498, 48 hours, read-out: ED50 (the source's name)
[10] = HCT 15, 48 hours, read-out: ED50 (the source's name)

Compound	IC50 [1, 6] [µg/mL]	IC50 [2, 7] [µg/mL]	IC50 [3, 8] [µg/mL]	IC50 [4, 9] [µg/mL]	IC50 [5, 10] [µg/mL]	further results
1-{[2-(Pyridin-2-yl)quinolin-4-yl]aminocarbonyl}-4-(3,5-dimethoxyphenyl)piperazine [Example 128]	–	–	–	–	–	ED50 ([1]; A549, 48 hours): 0.40 µg/mL; ED50 ([2]; SK-OV-3, 48 hours): 0.37 µg/mL; ED50 ([3]; SK-MEL-2, 48 hours): 0.42 µg/mL; ED50 ([4]; XF-498, 48 hours): 0.44 µg/mL; ED50 ([5]; HCT 15, 48 hours): 0.51 µg/mL
COc1cccc2c1C(=O)c1c(O)c3c(c(O)c1C2=O)C[C@@](O)(C(=O)CO)C[C@@H]3O[C@H]1C[C@H](N)[C@H](O)[C@H](C)O1 [Adriamycin, reference compound]	–	–	–	–	–	IC50 ([1]; A549, 48 h, read-out: ED50): 0.0168 µg/mL (≈ 0.0309 µM); IC50 ([2]; SK-OV-3, 48 h, read-out: ED50): 0.0176 µg/mL (≈ 0.0324 µM); IC50 ([3]; SK-MEL-2, 48 h, read-out: ED50): 0.0108 µg/mL (≈ 0.0199 µM); IC50 ([4]; XF498, 48 h, read-out: ED50): 0.025 µg/mL (≈ 0.046 µM); IC50 ([5]; HCT-15, 48 h, read-out: ED50): 1.67 µg/mL (≈ 3.07 µM)
N.N.[Cl][Pt][Cl] [Cisplatin, reference compound]	–	–	–	–	–	ED50 ([1]; A549, 48 hours): 0.8184 µg/mL; ED50 ([2]; SK-OV-3, 48 hours): 0.7134 µg/mL; ED50 ([3]; SK-MEL-2, 48 hours): 0.7147 µg/mL; ED50 ([4]; XF-498, 48 hours): 0.7771 µg/mL; ED50 ([5]; HCT 15, 48 hours): 3.0381 µg/mL
CCCc1cc(NC(=O)N2CCN(c3cc(C)cc(C)c3)CC2)c(OC)nc1C [Example 9, 1-[(2-Methoxy-6-methyl-5-propylpyridin-3-yl)aminocarbonyl]-4-(3,5-dimethylphenyl)piperazine]	0.15 (≈ 0.378 µM)	0.07 (≈ 0.177 µM)	0.21 (≈ 0.53 µM)	0.11 (≈ 0.277 µM)	0.11 (≈ 0.277 µM)	–
CCc1nc(OC)c(NC(=O)N2CCN(c3cccc(O)c3)CC2)cc1C [Example 14, 1-[(6-Ethyl-2-methoxy-5-methylpyridin-3-yl)aminocarbonyl]-4-(3-hydroxyphenyl)piperazine]	0.022 (≈ 0.0594 µM)	0.02 (≈ 0.054 µM)	–	0.16 (≈ 0.432 µM)	0.007 (≈ 0.0189 µM)	IC50 ([3]; SK-MEL-2, 48 h, read-out: ED50): 0.001 µg/mL (≈ 0.0027 µM)
CCCc1nc(OC)c(NC(=O)N2CCN(c3cccc(O)c3)CC2)cc1C [Example 17, 1-[(2-Methoxy-5-methyl-6-propylpyridin-3-yl)aminocarbonyl]-4-(3-hydroxyphenyl)piperazine]	0.018 (≈ 0.0468 µM)	0.01 (≈ 0.026 µM)	0.021 (≈ 0.0546 µM)	–	0.008 (≈ 0.0208 µM)	IC50 ([4]; XF498, 48 h, read-out: ED50): 0.077 µg/mL (≈ 0.2 µM)
COc1nc(C)c(C)cc1NC(=S)N1CCN(c2cc(F)cc(F)c2)CC1 [Example 23, 1-[(5,6-Dimethyl-2-methoxypyridin-3-yl)aminothiocarbonyl]-4-(3,5-difluorophenyl)piperazine]	0.09 (≈ 0.229 µM)	0.04 (≈ 0.102 µM)	0.09 (≈ 0.229 µM)	0.092 (≈ 0.234 µM)	0.05 (≈ 0.127 µM)	–
CCCc1nc(OC)c(NC(=S)N2CCN(c3cc(C)cc(C)c3)CC2)cc1C [Example 27, 1-[(2-Methoxy-5-methyl-6-propylpyridin-3-yl)aminothiocarbonyl]-4-(3,5-dimethylphenyl)piperazine]	0.02 (≈ 0.0485 µM)	0.11 (≈ 0.267 µM)	0.01 (≈ 0.0242 µM)	–	0.165 (≈ 0.4 µM)	IC50 ([4]; XF498, 48 h, read-out: ED50): 0.046 µg/mL (≈ 0.111 µM)

More lines, main results first:

IC50 [1, 6] [µg/mL]	IC50 [2, 7] [µg/mL]	IC50 [3, 8] [µg/mL]	IC50 [4, 9] [µg/mL]	IC50 [5, 10] [µg/mL]	Compound	further results
0.007 (≈ 0.0175 µM)	0.022 (≈ 0.0549 µM)	0.007 (≈ 0.0175 µM)	0.94 (≈ 2.35 µM)	0.093 (≈ 0.232 µM)	CCc1cc(NC(=O)N2CCN(c3ccccc3SC)CC2)c(OC)nc1C [Example 4, 1-[(5-Ethyl-6-methyl-2-methoxypyridin-3-yl)aminocarbonyl]-4-(2-methylthiophenyl)piperazine]	–
0.71 (≈ 1.8 µM)	0.96 (≈ 2.43 µM)	0.6 (≈ 1.52 µM)	> 10	0.96 (≈ 2.43 µM)	C=C(C)c1ccccc1N1CCN(C(=O)Nc2cc(CC)c(C)nc2OC)CC1 [Example 5, 1-[(5-Ethyl-6-methyl-2-methoxypyridin-3-yl)aminocarbonyl]-4-(2-isopropenylphenyl)piperazine]	–
0.91 (≈ 2.28 µM)	0.56 (≈ 1.41 µM)	0.62 (≈ 1.56 µM)	0.73 (≈ 1.83 µM)	0.71 (≈ 1.78 µM)	CCCc1cc(NC(=O)N2CCN(c3ccccc3OC)CC2)c(OC)nc1C [Example 11, 1-[(2-Methoxy-6-methyl-5-propylpyridin-3-yl)aminocarbonyl]-4-(2-methoxyphenyl)piperazine]	–
0.03 (≈ 0.0805 µM)	0.006 (≈ 0.0161 µM)	0.01 (≈ 0.0268 µM)	0.234 (≈ 0.628 µM)	0.01 (≈ 0.0268 µM)	COc1nc(C)c(C)cc1NC(=S)N1CCN(c2cccc(O)c2)CC1 [Example 24, 1-[(5,6-Dimethyl-2-methoxypyridin-3-yl)aminothiocarbonyl]-4-(3-hydroxyphenyl)piperazine]	–
